Data on 4 molecules can be found in patent US20140271820A1, “LIPOSOME OXALIPLATIN COMPOSITIONS FOR CANCER THERAPY” (priority 2013, published 2014).

Where two headings read alike, the source gives them in different places. A value given as a limit tells only on which side of the number the result lay.

For data set [1], the system named is KB (epidermoid oral carcinoma human tumor) cells. The experiment in a line: In vitro cytotoxicity, KB cells.
Experimental: (§2) Prior to initiation of this study, oxaliplatin was evaluated for drug tolerance in non-tumor bearing immunodeficient mice.
The conditions of data set [2]: pure lipid; cited from earlier work.
In data set [3] the test system is HT29. In words: In vitro cytotoxicity, HT29. Type of data set: cell-based, human. The procedure: A number of commercially available and privately-acquired tumor cell lines were initially surveyed for their sensitivity to various platinum agents, including oxaliplatin. […] The cell lines were also surveyed for sensitivity to 5FU.
Two studies of the novel liposome formulation containing oxaliplatin were conducted in this tumor model.

Data set [4] can be described thus: Drug tolerance in non-tumor bearing immunodeficient mice. The format is in vivo.
Experimental: as §2
Data set [5] deals with KB xenograft tumors. In words: Single-dose efficacy in mice bearing KB xenografts. The format is in vivo, nude mice. The settings on record: 15 mg/kg. From the text:
One-way ANOVA followed by Neuman-Keuls post hoc test.

The subject of data set [6] is HCT-116 cells. In words: In vitro cytotoxicity survey, HCT-116. The format is cell-based, human. Conditions: 72 h. As to the method:
(§1) A number of commercially available and privately-acquired tumor cell lines were initially surveyed for their sensitivity to various platinum agents, including oxaliplatin. […] The cell lines were also surveyed for sensitivity to 5FU. […] Additionally, literature survey was conducted in search of in vitro-generated oxaliplatin-resistant colorectal cell lines to potentially include pre-clinical pharmacology studies in an effort to show improved sensitivity of these cells to a liposomal vs. free oxaliplatin treatment. From this survey, […] other oxaliplatin-resistant colorectal tumor lines were identified; HT29 (Plascencia et al., 2006; Yang et al., 2006), and DLD-1 (Kashiwagi et al., 2011).

Data set [7] concerns human colon tumor cell lines. The experiment in a line: In vitro cytotoxicity survey, panel of human colon tumor cell lines. The format is cell-based. Conditions: HT-29, all cell lines tested except HT29, 72 h. As to the method: as §1

As usually defined, the IC50 is the concentration that inhibits the measured activity by half. Consider `N.N.[Cl][Pt][Cl]` [cisplatin], for which, in data set [1] (read-out: sensitivity (IC50), KB cell-line), the IC50 came to 4 µM.
With `CCCCCCCC/C=C\CCCCCCCC(=O)O[C@H](COC(=O)CCCCCCCCCCCCCCC)COP(=O)([O-])OCC[N+](C)(C)C` [POPC, 1-palmitoyl-2-oleoyl-sn-glycero-3-phosphocholine], the “gel-liquid crystalline thermal transition temperature” value in data set [2] is “around −2 °C”.
The term TGI denotes the reduction of tumour growth relative to the control group. Low readings indicate little slowing of growth, high ones much slowing of growth. As to `O=C1[O][Pt]2([NH][C@@H]3CCCC[C@H]3[NH]2)[O]C1=O` [oxaliplatin, [(1R,2R)-cyclohexane-1,2-diamine](ethanedioato-O,O′)platinum(II)], the IC50 was 5.4 µM in data set [1] (KB cell-line, 72 h); 5.3 µM in data set [1] (KB cells, cytotoxicity testing prior to injection); 5 to 10 µM in data set [3] (HT29 and several other cell lines, 72 h); 5.4 µM in data set [3] (HT29 cell line used in the present studies); 0.4 µM in data set [6]. In addition, the “drug tolerance (in words)” value in data set [4] (doses above 15 mg/kg (i.e., 20 mg/kg)) was “dehydration and unacceptable gross body weight losses”. For the same molecule, in data set [4] (mice), the “maximum tolerated dose (MTD)” value stood at 15 mg/kg. Also, in data set [5], the “tumor growth and survival compared to saline control (in words)” value was “did not significantly inhibit tumor growth or increase survival”. The “Median Survival” value in data set [5] (KB xenografts) is listed as 25.5. Further, the TGI in data set [5] (KB xenografts) is 0%.
For `O=c1[nH]cc(F)c(=O)[nH]1` [Sample 5FU, 5-fluorouracil], the IC50 was > 50 µM in data set [3] (Homo sapiens, HT-29, HT29, 72 h) and 7 to 10 µM in data set [7].
